Experimental data published in patent US20230000870A1, “METHODS OF TREATING CANCER IN BIOMARKER-IDENTIFIED PATIENTS WITH INHIBITORS OF CYCLIN-DEPENDENT KINASE 7 (CDK7)” (Syros Pharmaceuticals, Inc., priority 2019, published 2023).

How the values were obtained:
[1] = molecular target: T1, CDK12 (aa686-1082)/Cyclin K complex (Homo sapiens, UniProt Q9NYV4); experiment: CDK12 kinase inhibition assay (Caliper/LabChip EZ Reader); type: biochemical; conditions: CDK12 (aa686-1082)/Cyclin K 50 nM, ATP 2 mM, 3 hr at 27° C.
T1 construct: CDK12 (aa686-1082)/Cyclin K complex
T1 sequence (Q9NYV4 686-1082): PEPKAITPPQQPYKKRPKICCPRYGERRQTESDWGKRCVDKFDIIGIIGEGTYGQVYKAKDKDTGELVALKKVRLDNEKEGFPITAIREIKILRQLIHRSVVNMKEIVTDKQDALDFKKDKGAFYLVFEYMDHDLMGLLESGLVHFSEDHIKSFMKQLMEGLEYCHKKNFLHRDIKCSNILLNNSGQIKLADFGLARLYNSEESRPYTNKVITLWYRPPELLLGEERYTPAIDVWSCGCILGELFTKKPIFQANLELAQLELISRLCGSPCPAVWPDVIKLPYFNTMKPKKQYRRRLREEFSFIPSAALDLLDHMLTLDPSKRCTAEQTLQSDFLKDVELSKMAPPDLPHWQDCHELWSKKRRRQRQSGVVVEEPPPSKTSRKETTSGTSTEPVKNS
T1 sequence (O75909 whole entry partner, the tested form may be a part): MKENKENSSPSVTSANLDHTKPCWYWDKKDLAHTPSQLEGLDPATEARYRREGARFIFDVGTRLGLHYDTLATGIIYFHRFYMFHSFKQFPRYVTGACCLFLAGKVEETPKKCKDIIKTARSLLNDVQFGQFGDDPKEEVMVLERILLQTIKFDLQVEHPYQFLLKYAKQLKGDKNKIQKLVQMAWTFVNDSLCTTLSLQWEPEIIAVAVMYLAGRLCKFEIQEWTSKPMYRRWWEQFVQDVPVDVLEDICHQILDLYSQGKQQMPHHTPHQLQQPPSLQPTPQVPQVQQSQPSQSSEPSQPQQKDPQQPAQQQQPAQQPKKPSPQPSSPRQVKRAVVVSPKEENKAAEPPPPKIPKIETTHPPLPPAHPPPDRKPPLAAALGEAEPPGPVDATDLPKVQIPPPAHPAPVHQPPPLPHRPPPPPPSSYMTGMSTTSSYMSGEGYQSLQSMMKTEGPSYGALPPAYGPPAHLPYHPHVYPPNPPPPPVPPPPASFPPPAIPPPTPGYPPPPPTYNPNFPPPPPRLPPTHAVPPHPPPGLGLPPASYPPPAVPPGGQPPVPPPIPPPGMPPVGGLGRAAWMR
Experimental: (§1) Compounds of the invention were assayed for inhibition of CDK7, CDK9, CDK12, and CDK2 activity at Biortus Biosciences (Jiangyin, Jiangsu Province, P.R. of China) using kinase assays for each CDK developed with a Caliper/LabChip EZ Reader (Perkin Elmer, Waltham, Mass.).
(§2) Furthermore, the CDK9 inhibition assay used CDK9/Cyclin T1 complex (8 nM) and “5-FAM-CDK9tide” peptide substrate (2 μM, synthesized fluorophore-labeled peptide with the following sequence: 5-FAM-GSRTPMY-NH2 where 5-FAM is defined above and NH2 signifies a C-terminal amide) with 10 mM MgCl2 in the buffer composition listed above. The CDK12 inhibition assay used CDK12 (aa686-1082)/Cyclin K complex (50 nM) and “5-FAM-CDK9tide” (2 μM) as defined above, with 2 mM MgCl2 in the buffer composition above. Additionally, the CDK2 inhibition assay used CDK2/Cyclin E1 complex (0.5 nM) and “5-FAM-CDK7tide” (2 μM) as defined above, with 2 mM MgCl2 in the buffer composition listed above.
(§3) The incubation period at 27° C. for each CDK inhibition assay was chosen such that the fraction of phosphorylated peptide product produced in each assay, relative to the total peptide concentration, was approximately 20% (±5%) for the uninhibited kinase (35 min. for CDK7, 35 min. for CDK2, 3 hr. for CDK12, 15 min. for CDK9).

CDK2/Cyclin E1 complex = CDK2/Cyclin E1 complex (Homo sapiens, UniProt P24941); experiment: CDK2 kinase inhibition assay (Caliper/LabChip EZ Reader); type: biochemical; conditions: CDK2/Cyclin E1 0.5 nM, ATP 2 mM, 35 min at 27° C.
Experimental: as §1, §2, §3

CDK9/Cyclin T1 complex = CDK9/Cyclin T1 complex (Homo sapiens, UniProt P50750); experiment: CDK9 kinase inhibition assay (Caliper/LabChip EZ Reader); type: biochemical; conditions: CDK9/Cyclin T1 8 nM, ATP 2 mM, 15 min at 27° C.
Chain of CDK9/Cyclin T1 complex (P50750 whole entry): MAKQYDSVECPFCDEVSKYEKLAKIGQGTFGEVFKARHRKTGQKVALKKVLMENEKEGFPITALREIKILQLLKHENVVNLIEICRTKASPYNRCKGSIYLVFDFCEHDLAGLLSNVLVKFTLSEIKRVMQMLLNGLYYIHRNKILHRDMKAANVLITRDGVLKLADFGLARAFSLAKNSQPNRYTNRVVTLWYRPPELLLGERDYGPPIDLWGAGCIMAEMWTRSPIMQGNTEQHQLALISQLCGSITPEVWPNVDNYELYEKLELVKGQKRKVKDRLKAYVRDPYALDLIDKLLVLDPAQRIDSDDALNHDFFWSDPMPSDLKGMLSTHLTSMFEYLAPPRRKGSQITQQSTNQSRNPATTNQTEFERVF
Chain of CDK9/Cyclin T1 complex (O60563 whole entry partner): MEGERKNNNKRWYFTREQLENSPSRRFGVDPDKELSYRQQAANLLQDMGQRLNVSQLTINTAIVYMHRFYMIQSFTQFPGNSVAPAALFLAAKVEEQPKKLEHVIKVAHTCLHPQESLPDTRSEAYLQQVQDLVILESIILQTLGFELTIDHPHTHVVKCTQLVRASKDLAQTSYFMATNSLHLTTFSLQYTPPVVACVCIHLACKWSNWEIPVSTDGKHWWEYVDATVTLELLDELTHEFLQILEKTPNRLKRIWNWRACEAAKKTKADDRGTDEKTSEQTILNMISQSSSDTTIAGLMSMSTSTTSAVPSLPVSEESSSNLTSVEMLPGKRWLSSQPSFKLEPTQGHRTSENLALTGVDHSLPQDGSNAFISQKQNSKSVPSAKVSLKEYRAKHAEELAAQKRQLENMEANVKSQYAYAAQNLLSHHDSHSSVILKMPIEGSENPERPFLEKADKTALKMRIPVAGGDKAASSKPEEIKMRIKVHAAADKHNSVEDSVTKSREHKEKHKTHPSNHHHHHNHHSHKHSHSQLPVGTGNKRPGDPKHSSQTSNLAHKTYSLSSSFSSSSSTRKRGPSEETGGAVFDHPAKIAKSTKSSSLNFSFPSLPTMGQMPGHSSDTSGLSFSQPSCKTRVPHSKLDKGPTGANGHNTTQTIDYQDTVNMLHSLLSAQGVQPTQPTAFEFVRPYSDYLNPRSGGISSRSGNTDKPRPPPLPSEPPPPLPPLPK
Experimental: as §1, §2, §3

[2] = molecular target: CDK7/Cyclin H/MAT1 complex (Homo sapiens, UniProt P50613); experiment: CDK7 kinase inhibition assay (Caliper/LabChip EZ Reader); type: biochemical; conditions: CDK7/Cyclin H/MAT1 6 nM, ATP 2 mM, 35 min at 27° C.
Chain of CDK7/Cyclin H/MAT1 complex (P50613 whole entry): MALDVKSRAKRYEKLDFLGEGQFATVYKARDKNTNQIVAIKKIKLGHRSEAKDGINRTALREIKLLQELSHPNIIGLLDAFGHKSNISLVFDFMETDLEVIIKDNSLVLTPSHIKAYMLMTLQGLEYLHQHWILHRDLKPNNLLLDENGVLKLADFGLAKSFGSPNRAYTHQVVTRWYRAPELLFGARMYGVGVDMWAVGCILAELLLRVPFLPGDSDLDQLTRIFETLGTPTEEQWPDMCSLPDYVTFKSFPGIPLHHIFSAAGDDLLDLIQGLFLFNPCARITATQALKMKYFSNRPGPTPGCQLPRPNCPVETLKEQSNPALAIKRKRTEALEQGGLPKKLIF
Chain of CDK7/Cyclin H/MAT1 complex (P51946 whole entry partner): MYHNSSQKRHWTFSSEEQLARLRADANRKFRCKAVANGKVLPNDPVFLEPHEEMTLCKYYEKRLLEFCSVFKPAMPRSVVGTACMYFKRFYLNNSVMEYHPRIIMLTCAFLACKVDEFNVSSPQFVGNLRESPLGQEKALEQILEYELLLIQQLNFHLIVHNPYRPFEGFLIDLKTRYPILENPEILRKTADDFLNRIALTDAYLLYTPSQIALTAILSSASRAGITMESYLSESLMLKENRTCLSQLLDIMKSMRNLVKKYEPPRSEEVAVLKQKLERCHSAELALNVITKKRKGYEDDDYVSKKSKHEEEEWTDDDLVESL
Chain of CDK7/Cyclin H/MAT1 complex (P51948 whole entry partner): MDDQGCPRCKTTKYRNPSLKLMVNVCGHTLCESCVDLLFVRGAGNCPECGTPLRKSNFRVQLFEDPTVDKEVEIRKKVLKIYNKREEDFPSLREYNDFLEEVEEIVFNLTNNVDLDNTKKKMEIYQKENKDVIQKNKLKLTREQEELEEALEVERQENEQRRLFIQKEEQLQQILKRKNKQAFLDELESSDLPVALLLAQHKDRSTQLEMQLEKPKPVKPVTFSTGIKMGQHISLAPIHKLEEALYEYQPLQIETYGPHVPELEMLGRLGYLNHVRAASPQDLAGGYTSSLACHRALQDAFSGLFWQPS
Experimental: as §1, §2, §3

A673 cells = experiment: Inhibition of proliferation of A673 cells (CyQUANT, 72 hour); type: cell-based, human; conditions: read-out: Inhibition of Proliferation of A673 Cells (calculated IC50)
Experimental: A673 Cells: A673 cells are a cell line derived from human muscle Ewing's sarcoma. Representative compounds of the invention were tested at different concentrations (from 4 μM to […]; 0.5 log serial dilutions) for their ability to inhibit the proliferation of A673 cells. Known CDK inhibitors dinaciclib or N-((1S,3R)-3-((5-chloro-4-(1H-indol-3-yl)pyrimidin-2-yl)amino)cyclohexyl)-5-((E)-4-(dimethylamino)but-2-enamido)picolinamide and triptolide were used as positive controls. Cells were grown in Dulbecco's Modified Eagle's Medium, +10% FBS+1 mM Sodium Pyruvate. The cells were cultured at 37° C. in a humidified chamber in the presence of 5% CO2. Proliferation assays were conducted over a 72 hour time period. CyQUANT® (Life Technologies, Chicago, Ill. USA) was used to assess the anti-proliferative effects of the compounds following manufacturer's directions and utilizing the reagents supplied with the CyQUANT® kit.

Row | Compound | IC50 [1] [nM] | IC50 (CDK2/Cyclin E1 complex) [nM] | IC50 (CDK9/Cyclin T1 complex) [nM] | IC50 [2] [nM] | IC50 (A673 cells) [nM]
1 | Clc1cnc(NC2CNCCC2c2ccccc2)nc1-c1c[nH]c2ccccc12 (stereo not drawn) [Compound 116] | ≥ 5000 | ≥ 5000 | ≥ 5000 | ≥ 5000 | 200 to 5000
2 | Cc1cnc(NC2CCCNC2)nc1-c1c[nH]c2ccccc12 (stereo not drawn) [Compound 119] | 200 to 5000 | ≥ 5000 | 200 to 5000 | 20 to 200 | 20 to 200
3 | N#Cc1ccc2[nH]cc(-c3nc(NC4CCCNC4)ncc3C(F)(F)F)c2c1 (stereo not drawn) [Compound 169] | 200 to 5000 | ≥ 5000 | ≥ 5000 | 20 to 200 | 200 to 5000
4 | CC(C)CN1CCCC(Nc2ncc(Cl)c(-c3c[nH]c4ccccc34)n2)C1 (stereo not drawn) [Compound 145] | 200 to 5000 | ≥ 5000 | ≥ 5000 | 20 to 200 | 200 to 5000
5 | c1ccc2c(-c3nc(NC4CCCNC4)ncc3C3CC3)c[nH]c2c1 (stereo not drawn) [Compound 135] | ≥ 5000 | ≥ 5000 | ≥ 5000 | 20 to 200 | 200 to 5000
6 | Clc1cnc(N[C@H]2CN3CCC2CC3)nc1-c1c[nH]c2ccccc12 [Compound 134] | ≥ 5000 | ≥ 5000 | ≥ 5000 | ≥ 5000 | 200 to 5000
7 | O=C(c1ccc2c(-c3nc(NC4CCCNC4)ncc3C(F)(F)F)c[nH]c2c1)N1CCC(O)C1 (stereo not drawn) [Compound 204] | 200 to 5000 | ≥ 5000 | ≥ 5000 | < 20 | 200 to 5000
8 | FC(F)(F)c1cnc(NC2CCCNC2)nc1-c1c[nH]c2cc(-c3cn[nH]c3)ccc12 (stereo not drawn) [Compound 188] | 200 to 5000 | 200 to 5000 | 200 to 5000 | < 20 | 20 to 200
9 | Cc1cccc2c(-c3nc(NC4CCCNC4)ncc3CC(C)C)c[nH]c12 (stereo not drawn) [Compound 140] | ≥ 5000 | ≥ 5000 | ≥ 5000 | 200 to 5000 | 200 to 5000
10 | Cc1cn(-c2cccc3c(-c4nc(NC5CCCNC5)ncc4C(F)(F)F)c[nH]c23)cn1 (stereo not drawn) [Compound 172] | 200 to 5000 | 200 to 5000 | 200 to 5000 | < 20 | < 20
11 | OC1CCNCC1Nc1ncc(Cl)c(-c2c[nH]c3ccccc23)n1 (stereo not drawn) [Compound 113] | 200 to 5000 | ≥ 5000 | ≥ 5000 | 20 to 200 | 200 to 5000

More lines, main results first:

Row | IC50 [1] [nM] | IC50 (CDK2/Cyclin E1 complex) [nM] | IC50 (CDK9/Cyclin T1 complex) [nM] | IC50 [2] [nM] | Compound | IC50 (A673 cells) [nM]
12 | 200 to 5000 | 200 to 5000 | 200 to 5000 | 200 to 5000 | CS(=O)(=O)c1cccn2c(C3CNCC(Nc4ncc(C(F)(F)F)c(-c5c[nH]c6ccccc56)n4)C3)nnc12 (stereo not drawn) [Compound 265] | 20 to 200
13 | 200 to 5000 | 200 to 5000 | 200 to 5000 | < 20 | Cc1nn(C)cc1-c1ccc2c(-c3nc(N[C@H]4CCCNC4)ncc3C(F)(F)F)c[nH]c2c1 [Compound 226] | < 20
14 | 200 to 5000 | 200 to 5000 | 200 to 5000 | < 20 | OC1CCC(c2cccc3c(-c4nc(NC5CCCNC5)ncc4C(F)(F)F)c[nH]c23)CC1 (stereo not drawn) [Compound 207] | < 20
15 | 200 to 5000 | 200 to 5000 | 200 to 5000 | < 20 | Cc1c(-c2ccc3c(-c4nc(NC5CCCNC5)ncc4C(F)(F)F)c[nH]c3c2)cnn1C (stereo not drawn) [Compound 227] | 20 to 200
16 | 200 to 5000 | 200 to 5000 | 200 to 5000 | < 20 | CCc1cnc(NC2CCCNC2)nc1-c1n[nH]c2ncccc12 (stereo not drawn) [Compound 262] | 20 to 200
17 | ≥ 5000 | 200 to 5000 | ≥ 5000 | 20 to 200 | CNC(=O)C1CNCC(Nc2ncc(C(F)(F)F)c(-c3c[nH]c4ccccc34)n2)C1 (stereo not drawn) [Compound 252] | 200 to 5000
18 | ≥ 5000 | ≥ 5000 | ≥ 5000 | 20 to 200 | CC(C)C1CC[C@H](Nc2ncc(C(F)(F)F)c(-c3c[nH]c4ccccc34)n2)CN1 (stereo partly drawn) [Compound 257] | 200 to 5000
